Columns and labels:
[1] = system: human PBMC co-cultured with 4T1-D02 (Nectin4+); experiment: Human PBMC-4T1 co-culture (cytokine release) assay; assay type: cell-based; details: anti-CD3 stimulated PBMC, 48 hours
In short: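 Healthy-donor human PBMCs co-cultured 5:1 with murine Nectin-4-overexpressing 4T1-D02 cells, stimulated with 125 ng/ml soluble anti-CD3 (OKT3) plus test compounds. IL-2 and IFNγ in 48 h supernatants measured by HTRF and interpolated from standard curves; three donors, each in duplicate.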

[2] = Pharmacokinetics of CD137 bispecifics in SD rats; assay type: in vivo; details: SD Rat, 2 mg/kg IV, plasma
Experimental: Male SD Rats were dosed with 2 mg/kg of each Bicycle multimer formulated in 25 mM Histidine HCl, 10% sucrose pH 7. Serial bleeding (about 80 μL blood/time point) was performed via submadibular or saphenous vein at each time point. All blood samples were immediately transferred into prechilled microcentrifuge tubes containing 2 μL K2-EDTA (0.5M) as anti-coagulant and placed on wet ice. Blood samples were immediately processed for plasma by centrifugation at approximately 4° C., 3000 g. The precipitant including internal standard was immediately added into the plasma, mixed well and centrifuged at 12,000 rpm, 4° C. for 10 minutes. The supernatant was transferred into pre-labeled polypropylene microcentrifuge tubes, and then quick-frozen over dry ice. The samples were stored at […] or below as needed until analysis. 7.5 μL of the supernatant samples were directly injected for LC-MS/MS analysis using an Orbitrap Q Exactive in positive ion mode to determine the concentrations of Bicycle multimer. Plasma concentration versus time data were analyzed by non-compartmental approaches using the Phoenix WinNonlin 6.3 software program. C0, CI, Vdss, T½, AUC(0-last), AUC(0-inf), MRT(0-last), MRT(0-inf) and graphs of plasma concentration versus time profile were reported.

[3] = system: primary patient derived tumour cells; experiment: Ex vivo culture of primary patient-derived lung tumours; assay type: cell-based, human; details: patient-derived lung tumour samples
Experimental: Primary patient derived tumour cells from Discovery Life Sciences (DLS) are thawed gently in 10 mL pre-warmed wash medium spiked fresh with Benzonase. The 3D spheroid kit from Greiner (cat #655840) is used to maintain cells in culture for 2 days. Briefly, tumour cells are counted with trypan blue using a haemocytometer. The cells are centrifuged at 1500 rpm for 5 min to wash, and the pellet is resuspended in 100 μL per 1×10^6 cells N3D nanoshuttle. To make them magnetic, cells are spun down at 1500 rpm for 5 min and resuspended; this process is repeated for a total of 4 times. After the final spin, cells are resuspended in the appropriate amount of fresh Lung DTC medium (DLS) to give 50,000-100,000 cells per well in 100 μL/well. Greiner cell-repellent, 96-well plates (cat #655976) are used for this experiment.
If there are cell clumps or debris visible, sample is applied to a 70-100 μm filter before plating. At least 50,000 cells per sample are reserved for a Day 0 flow cytometry panel, these cells are stained, fixed, and stored at 4° C. for later flow analysis. […] Cytokines are quantified using a custom-built cytokine/chemokine panel (IP-10, Granzyme B, IFNγ, IL-2, IL-6, TNFα, IL-8, MIP-1a, MIP-1b, MCP-1, IL-10, MIG) from R&D systems on a Luminex reader. […] Flow data is analysed with Flowjo software.

[4] = target: CD137 (Homo sapiens, UniProt Q07011); experiment: CD137 reporter assay, co-culture with Nectin-4 tumour cells; assay type: cell-based; design: host or cells: Jurkat reporter cells;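 further: jurkat reporter cells co-cultured with tumour cells and test article for 6 h, luminescence signal relative to Jurkat plus tumour cells lacking test article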
Chain of CD137 (Q07011 24-255): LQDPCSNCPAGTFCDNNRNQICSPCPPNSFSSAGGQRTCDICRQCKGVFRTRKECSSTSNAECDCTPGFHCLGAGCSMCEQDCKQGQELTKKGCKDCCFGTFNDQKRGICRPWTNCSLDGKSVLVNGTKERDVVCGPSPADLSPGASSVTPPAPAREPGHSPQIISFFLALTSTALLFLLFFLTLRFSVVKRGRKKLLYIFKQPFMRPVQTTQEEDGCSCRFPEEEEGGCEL

SMILES: CCCC[C@@H]1NC(=O)[C@H](Cc2ccc(O)cc2)NC(=O)[C@@H]2CCCN2C(=O)[C@H](CC(=O)O)NC(=O)[C@H](C)NC(=O)[C@H](Cc2ccccc2)NC(=O)[C@@H]2CSCCC(=O)N3CN(CN(C3)C(=O)CCSC[C@@H](C(=O)N[C@@H](C)C(N)=O)NC1=O)C(=O)CCSC[C@H](NC(C)=O)C(=O)N[C@@H](CC(C)(C)C)C(=O)N1CCC[C@H]1C(=O)N[C@@H](CCC(=O)O)C(=O)N[C@H](CCCCNC(=O)CCc1cn(CCOCCOCCOCCOCCOCCC(=O)N[C@H]3CSCCC(=O)N4CN5CN(C4)C(=O)CCSC[C@H](NC(=O)[C@@H](CC(=O)O)NC(=O)[C@H](Cc4cccc6ccccc46)NC(=O)[C@@H]4CCCN4C3=O)C(=O)N[C@@H](CCSC)C(=O)N[C@@H](CCCCNC(=N)N)C(=O)N[C@@H](CC(=O)O)C(=O)N[C@@H](Cc3c[nH]c4ccccc34)C(=O)N[C@@H](CO)C(=O)N[C@@H]([C@@H](C)O)C(=O)N3CCC[C@H]3C(=O)N3C[C@H](O)C[C@H]3C(=O)N[C@@H](Cc3c[nH]c4ccccc34)C(=O)N[C@H](C(N)=O)CSCCC5=O)nn1)C(=O)N1CCC[C@H]1C(=O)N[C@@H](Cc1ccc(O)cc1)C(=O)N2 [BCY10572]
- EC50 ([1]; IFN-γ secretion): 0.25 nM
- max IFN-y [1]: 17915 pg/mL
- T½ [2]: 55.6 min
- clearance ([2]; male, Sprague-Dawley (SD), read-out: Clp): 15.6 mL/min/kg
- Vd ([2]; male, Sprague-Dawley (SD), read-out: Vdss): 0.882 L/kg
- change in immune markers (normalized to vehicle) ([3]; 48 h (FIG. 8)): induced Nectin-4 dependent change in several immune markers
- change in % CD8+ki67+ T cells ([3]; Day 2 flow (FIG. 8)): induced Nectin-4 dependent change
- EC50 [4]: 0.44 nM
- Fold Induction over Background ([4]; tumour target Nectin4, co-culture with H1376, 6 h): 55 fold

— US11453703B2, “Heterotandem bicyclic peptide complexes” (BicycleTX Limited, priority 2018, dated 2022)
